Measurements as given in patent US20250127162A1, “METHODS AND COMPOSITIONS FOR CONTROLLING PESTS IN RICE” (Globachem NV, priority 2022, published 2025).

Columns and labels:
Format in all cases: in vivo
Rice [1] = assay: Phytotoxicity on rice (Example 1, Trials 1-2, Spain); design: key: % leaf necrosis/discoloration vs untreated plants; settings: applications AB
From the text: (§1) “Low Phytotoxicity” of pelargonic acid, as used herein means that the toxic effect on plants is absent or at such a level so as not to adversely impact the growth and/or yield of the plant under a given set of test conditions, e.g., at a given concentration of pelargonic acid. Phytotoxic effects may be measured in a number of different ways, for example, according to the principals set out in OEPP/EPPO Bulletin (2014) 44 (3), 265-273 “PP 1/135 (4) Phytotoxicity assessment”. The phytotoxic effect on plants may be assessed visually as a function of the percentage of discoloration to the leaves and/or the appearance of necrosis. When the pelargonic acid compositions are applied to the foliage of the rice plants in accordance with the teachings herein, will typically result in a level of phytotoxicity of less than 20%, preferably less than 15%, more preferably less than 10% necrosis of the leaves in comparison to untreated plants. Preferred uses of the invention will typically result in phytotoxicity of 7% or less, whilst the most preferred uses will typically result in phytotoxicity of 5% or less. The above values are approximate as any purely visual assessment is likely to contain a degree of subjectivity.
(§2) All applications were made with an EC formulation containing 650 g/L of pelargonic acid (e.g., 685 g/L of 95% purity pelargonic acid), an anionic emulsifier and a branched fatty acid ester solvent.
(§3) Application A was made to the crops at the beginning of infestations; for these trials, Stage BBCH 59; Application B was made 14 days after Application A.
(§4) Trial 1 was conducted in Spain using a water volume of 300 L/ha of water per application unless otherwise indicated. Pest Incidence/Number of Insects (PESINC) and Pest Severity (PESSEV) as a Percent of Untreated Check (% UNCK) as well as Phytotoxicity were assessed at various treatment evaluation intervals.
as §4, with “2” for “1”

Rice [2] = assay: Phytotoxicity PHYGEN on rice (Example 1, Trials 3-4, Thailand); design: key: % leaf necrosis compared with untreated plants
From the text: as §1, §2, §3
Trial 3 was conducted in Thailand using a water volume of 500 L/ha of water per application unless otherwise indicated. Insect Damage (DAMINS %), Insect Damage (Number) and Phytotoxicity were assessed at various treatment evaluation intervals.
Trial 4 was conducted in Thailand using a water volume of 500 L/ha of water per application unless otherwise indicated. Insect Damage (DAMINS %), Insect Damage (Number) and Phytotoxicity were assessed at various treatment evaluation intervals.

Diabrotica speciosa = assay: Dry bean field trials, Diabrotica speciosa damage and yield (Example 4); settings: 150 L water/ha, two applications 7 d apart; for % Damage, % UNCK: 28 DAB, Lambda-cyhalothrin 100 at 0.15 L/ha; for Yield: plot
From the text: as §2
Diabrotica speciosa is a major pest in rice.
Dry Beans—Diabrotica speciosa

[3] = Trial 1, dry bean, listed as PA 812.5 g/ha
[4] = Trial 1, dry bean, listed as PA 975 g/ha
[5] = Trial 1, dry bean, listed as PA 1137.5 g/ha
[6] = Trial 2, dry bean, listed as PA 812.5 g/ha
[7] = Trial 2, dry bean, listed as PA 975 g/ha
[8] = Trial 2, dry bean, listed as PA 1137.5 g/ha

Question: CCCCCCCCC(=O)O [PA 650 g/ha, pelargonic acid] was tested. Which Phytotoxicity (Rice [1]; Trial 2 (PESINC table), water volume 150 L/ha) did it give?
Answer: 0

Question: What about the Phytotoxicity (Rice [1]; Trial 2 (PESINC table), water volume 300 L/ha) of the same compound?
Answer: 0

Question: What about the Phytotoxicity (Rice [1]; Trial 2 (PESSEV table), water volume 150 L/ha) of the same compound?
Answer: 0

Question: What about the Phytotoxicity (Rice [1]; Trial 2 (PESSEV table), water volume 300 L/ha) of the same compound?
Answer: 0

Question: What about the “Phytotoxicity (PHYGEN)” value (Rice [2]; Trial 3, 0 DAA, water volume 200 L/ha) of the same compound?
Answer: 0

Question: And the “Phytotoxicity (PHYGEN)” value (Rice [2]; Trial 3, 0 DAA, water volume 500 L/ha)?
Answer: 0

Question: And the “Phytotoxicity (PHYGEN)” value (Rice [2]; Trial 3, 0 DAB, water volume 200 L/ha)?
Answer: 0

Question: And the “Phytotoxicity (PHYGEN)” value (Rice [2]; Trial 3, 0 DAB, water volume 500 L/ha)?
Answer: 0

Question: And the “Phytotoxicity (PHYGEN)” value (Rice [2]; Trial 3, 7 DAA, water volume 200 L/ha)?
Answer: 0

Question: What about the “Phytotoxicity (PHYGEN)” value (Rice [2]; Trial 3, 7 DAA, water volume 500 L/ha) of the same compound?
Answer: 0

Question: What about the “Phytotoxicity (PHYGEN)” value (Rice [2]; Trial 3, 7 DAB, water volume 200 L/ha) of the same compound?
Answer: 0

Question: What about the “Phytotoxicity (PHYGEN)” value (Rice [2]; Trial 3, 7 DAB, water volume 500 L/ha) of the same compound?
Answer: 0

Question: What about the “Phytotoxicity (PHYGEN)” value (Rice [2]; Trial 3, 10 DAA, water volume 200 L/ha) of the same compound?
Answer: 0

Question: And the “Phytotoxicity (PHYGEN)” value (Rice [2]; Trial 3, 10 DAA, water volume 500 L/ha)?
Answer: 0

Question: What about the “Phytotoxicity (PHYGEN)” value (Rice [2]; Trial 3, 10 DAB, water volume 200 L/ha) of the same compound?
Answer: 0

Question: What about the “Phytotoxicity (PHYGEN)” value (Rice [2]; Trial 3, 10 DAB, water volume 500 L/ha) of the same compound?
Answer: 0

Question: What about the “Phytotoxicity (PHYGEN)” value (Rice [2]; Trial 3, 14 DAB, water volume 200 L/ha) of the same compound?
Answer: 0

Question: What about the “Phytotoxicity (PHYGEN)” value (Rice [2]; Trial 3, 14 DAB, water volume 500 L/ha) of the same compound?
Answer: 0

Question: What about the “Phytotoxicity (PHYGEN)” value (Rice [2]; Trial 3, 21 DAB, water volume 200 L/ha) of the same compound?
Answer: 0

Question: What about the “Phytotoxicity (PHYGEN)” value (Rice [2]; Trial 3, 21 DAB, water volume 500 L/ha) of the same compound?
Answer: 0

Question: And the “Phytotoxicity (PHYGEN)” value (Rice [2]; Trial 4, 0 DAA, water volume 200 L/ha)?
Answer: 0

Question: What about the “Phytotoxicity (PHYGEN)” value (Rice [2]; Trial 4, 0 DAA, water volume 500 L/ha) of the same compound?
Answer: 0

Question: What about the “Phytotoxicity (PHYGEN)” value (Rice [2]; Trial 4, 0 DAB, water volume 200 L/ha) of the same compound?
Answer: 0

Question: And the “Phytotoxicity (PHYGEN)” value (Rice [2]; Trial 4, 0 DAB, water volume 500 L/ha)?
Answer: 0

Question: And the “Phytotoxicity (PHYGEN)” value (Rice [2]; Trial 4, 7 DAA, water volume 200 L/ha)?
Answer: 0

Question: What about the “Phytotoxicity (PHYGEN)” value (Rice [2]; Trial 4, 7 DAA, water volume 500 L/ha) of the same compound?
Answer: 0

Question: What about the “Phytotoxicity (PHYGEN)” value (Rice [2]; Trial 4, 7 DAB, water volume 200 L/ha) of the same compound?
Answer: 0

Question: And the “Phytotoxicity (PHYGEN)” value (Rice [2]; Trial 4, 7 DAB, water volume 500 L/ha)?
Answer: 0

Question: What about the “Phytotoxicity (PHYGEN)” value (Rice [2]; Trial 4, 10 DAA, water volume 200 L/ha) of the same compound?
Answer: 0

Question: And the “Phytotoxicity (PHYGEN)” value (Rice [2]; Trial 4, 10 DAA, water volume 500 L/ha)?
Answer: 0

Question: And the “Phytotoxicity (PHYGEN)” value (Rice [2]; Trial 4, 10 DAB, water volume 200 L/ha)?
Answer: 0

Question: What about the “Phytotoxicity (PHYGEN)” value (Rice [2]; Trial 4, 10 DAB, water volume 500 L/ha) of the same compound?
Answer: 0

Question: What about the “Phytotoxicity (PHYGEN)” value (Rice [2]; Trial 4, 14 DAB, water volume 200 L/ha) of the same compound?
Answer: 0

Question: What about the “Phytotoxicity (PHYGEN)” value (Rice [2]; Trial 4, 14 DAB, water volume 500 L/ha) of the same compound?
Answer: 0

Question: What about the “Phytotoxicity (PHYGEN)” value (Rice [2]; Trial 4, 21 DAB, water volume 200 L/ha) of the same compound?
Answer: 0

Question: What about the “Phytotoxicity (PHYGEN)” value (Rice [2]; Trial 4, 21 DAB, water volume 500 L/ha) of the same compound?
Answer: 0

Question: What about the “% Damage, % UNCK” value (Diabrotica speciosa; Trial 1, dry bean) of the same compound?
Answer: 27.81a % UNCK

Question: And the “% Damage, % UNCK” value (Diabrotica speciosa; [3])?
Answer: 82.01b % UNCK

Question: What about the “% Damage, % UNCK” value (Diabrotica speciosa; [4]) of the same compound?
Answer: 86.96b % UNCK

Question: What about the “% Damage, % UNCK” value (Diabrotica speciosa; [5]) of the same compound?
Answer: 88.90b % UNCK

Question: And the Yield (Diabrotica speciosa; Trial 1, dry bean)?
Answer: 2.09b Ton/ha

Question: What about the Yield (Diabrotica speciosa; [3]) of the same compound?
Answer: 2.28ab Ton/ha

Question: And the Yield (Diabrotica speciosa; [4])?
Answer: 2.37ab Ton/ha

Question: What about the Yield (Diabrotica speciosa; [5]) of the same compound?
Answer: 2.34ab Ton/ha

Question: What about the “% Damage, % UNCK” value (Diabrotica speciosa; Trial 2, dry bean) of the same compound?
Answer: 39.58b % UNCK

Question: What about the “% Damage, % UNCK” value (Diabrotica speciosa; [6]) of the same compound?
Answer: 81.64c % UNCK

Question: And the “% Damage, % UNCK” value (Diabrotica speciosa; [7])?
Answer: 87.8c % UNCK

Question: What about the “% Damage, % UNCK” value (Diabrotica speciosa; [8]) of the same compound?
Answer: 88.11c % UNCK

Question: And the Yield (Diabrotica speciosa; Trial 2, dry bean)?
Answer: 2.11cd Ton/ha

Question: And the Yield (Diabrotica speciosa; [6])?
Answer: 2.15cd Ton/ha

Question: What about the Yield (Diabrotica speciosa; [7]) of the same compound?
Answer: 2.19bc Ton/ha

Question: And the Yield (Diabrotica speciosa; [8])?
Answer: 2.29a Ton/ha
